Test results as given in paper PMC7782793, “Hydroxamic acid-modified peptide microarrays for profiling isozyme-selective interactions and inhibition of histone deacetylases” (Nature Communications, 2021).
“And” between values parts separate entries of the source, which are not always exact repeats. Equal entries are not always repeated. Marks after values point to notes of the source that are not given here. Non-standard residues stand in square brackets, D forms with d. Residues, ends and D or L forms follow the SMILES beside them. *: point of attachment. Asu = N[C@@H](CCCCCC(=O)O)C(=O)O; NHOH = ON*

Legend:
HDAC8 = target: T1, HDAC8 (Homo sapiens, UniProt Q9BY41); experiment: Recombinant HDAC µSPOT microarray binding assay;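 note: peptide µSPOT slides incubated with varying HDAC enzyme concentrations, imaged signal intensity fitted by four-parameter variable-slope regression, EC50 is enzyme concentration giving half-maximal binding, pH 7.4 HEPES buffer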
T1 construct: HDAC8 (full length, C-terminal His tag, BPS Bioscience, cat. #: 50008); purchased BPS Bioscience 50008
T1 sequence (Q9BY41 1-377): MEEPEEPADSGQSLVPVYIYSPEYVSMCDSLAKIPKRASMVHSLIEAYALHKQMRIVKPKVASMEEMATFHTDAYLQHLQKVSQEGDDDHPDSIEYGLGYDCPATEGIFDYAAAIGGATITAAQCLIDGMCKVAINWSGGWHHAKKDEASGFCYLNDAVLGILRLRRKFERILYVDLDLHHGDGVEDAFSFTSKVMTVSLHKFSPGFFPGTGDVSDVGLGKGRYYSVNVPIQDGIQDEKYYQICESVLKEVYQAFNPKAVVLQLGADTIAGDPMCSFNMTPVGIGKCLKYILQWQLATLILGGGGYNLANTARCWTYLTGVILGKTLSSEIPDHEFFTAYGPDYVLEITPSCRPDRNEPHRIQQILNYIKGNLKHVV

HDAC3/NCoR2 [1] = target: T2, HDAC3/NCoR2 (Homo sapiens, UniProt O15379); experiment: HDAC inhibition assay (fluorogenic, Ac-Leu-Gly-Lys(Ac)-AMC); format: biochemical; conditions: for HDAC3 dose-response data (relative enzyme activity), Fig. 6 + S. Fig. 10: duplicate columns
T2 construct: HDAC3/NCoR2 (full length, C-terminal His tag, NCoR2 N-terminal GST tag); purchased BPS Bioscience 50003

HDAC1 = target: T3, HDAC1 (Homo sapiens, UniProt Q13547); experiment: as above; format: biochemical; conditions: for HDAC1 dose-response data (relative enzyme activity), Fig. 6 + S. Fig. 10: duplicate columns
T3 construct: HDAC1 (full length, C-terminal His tag, C-terminal FLAG tag, BPS Bioscience, cat. #: 50051); FLAG (C); purchased BPS Bioscience 50051

HDAC2 = target: T4, HDAC2 (Homo sapiens, UniProt Q92769); experiment: Recombinant HDAC µSPOT microarray binding assay;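 note: Cellulose-bound peptide spots on slides incubated with six HDAC enzyme concentrations, binding intensity read, four-parameter variable-slope fit, EC50 is enzyme concentration giving half-maximal binding, in HEPES buffer pH 7.4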
T4 construct: HDAC2 (full length, C-terminal His tag, BPS Bioscience, cat. #: 50002); purchased BPS Bioscience 50002

HDAC3/NCoR2 [2] = target: T2, HDAC3/NCoR2; experiment: Recombinant HDAC µSPOT microarray binding assay;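 note: peptide spots on cellulose slides incubated with rising HDAC enzyme concentrations, imaged together, four-parameter logistic fit, EC50 is enzyme concentration giving half-maximal binding signal, two experiments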
HDAC6 = target: T5, HDAC6 (Homo sapiens, UniProt Q9UBN7); experiment: HDAC inhibition assay (fluorogenic, Ac-Leu-Gly-Lys(Ac)-AMC); format: biochemical; conditions: HDAC6; log[inhibitor(M)] -4.30103; replicates
T5 construct: HDAC6 (full length, BPS Bioscience, cat. #: 50056); purchased BPS Bioscience 50056
T5 sequence (Q9UBN7 1-1215): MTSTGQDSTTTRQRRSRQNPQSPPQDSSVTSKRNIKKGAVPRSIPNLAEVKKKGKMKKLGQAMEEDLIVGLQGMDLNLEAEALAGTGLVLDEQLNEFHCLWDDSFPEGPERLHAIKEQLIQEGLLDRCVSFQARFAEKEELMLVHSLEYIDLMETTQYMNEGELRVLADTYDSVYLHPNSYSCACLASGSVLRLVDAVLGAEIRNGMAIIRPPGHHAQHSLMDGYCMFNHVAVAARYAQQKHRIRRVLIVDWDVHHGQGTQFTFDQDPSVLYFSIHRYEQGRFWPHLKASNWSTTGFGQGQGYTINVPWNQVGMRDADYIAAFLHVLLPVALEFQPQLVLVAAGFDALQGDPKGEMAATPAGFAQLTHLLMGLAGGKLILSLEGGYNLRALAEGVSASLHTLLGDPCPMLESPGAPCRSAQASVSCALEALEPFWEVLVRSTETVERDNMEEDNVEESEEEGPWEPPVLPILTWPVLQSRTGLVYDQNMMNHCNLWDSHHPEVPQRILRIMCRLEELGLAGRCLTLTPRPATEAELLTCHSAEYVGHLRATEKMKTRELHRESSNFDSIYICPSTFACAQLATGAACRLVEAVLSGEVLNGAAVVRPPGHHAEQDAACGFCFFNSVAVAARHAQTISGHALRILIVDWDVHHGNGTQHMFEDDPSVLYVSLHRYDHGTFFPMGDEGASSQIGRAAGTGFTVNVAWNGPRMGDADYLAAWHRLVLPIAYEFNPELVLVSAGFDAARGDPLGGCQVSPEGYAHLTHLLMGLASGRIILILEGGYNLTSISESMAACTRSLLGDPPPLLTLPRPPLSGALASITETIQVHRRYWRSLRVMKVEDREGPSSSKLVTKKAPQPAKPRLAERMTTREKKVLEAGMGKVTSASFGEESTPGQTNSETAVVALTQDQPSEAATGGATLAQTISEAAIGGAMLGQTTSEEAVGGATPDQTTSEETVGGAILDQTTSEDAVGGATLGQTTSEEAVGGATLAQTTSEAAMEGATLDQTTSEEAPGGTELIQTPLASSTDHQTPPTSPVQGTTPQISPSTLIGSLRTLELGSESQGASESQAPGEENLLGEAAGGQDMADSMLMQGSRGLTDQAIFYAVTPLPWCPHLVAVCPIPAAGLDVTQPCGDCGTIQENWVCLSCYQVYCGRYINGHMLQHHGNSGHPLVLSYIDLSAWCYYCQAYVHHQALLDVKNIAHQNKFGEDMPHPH

[3] = log[inhibitor(M)] -10,5850266520292*, whole line marked with asterisks

T3 sequence (Q13547 whole entry): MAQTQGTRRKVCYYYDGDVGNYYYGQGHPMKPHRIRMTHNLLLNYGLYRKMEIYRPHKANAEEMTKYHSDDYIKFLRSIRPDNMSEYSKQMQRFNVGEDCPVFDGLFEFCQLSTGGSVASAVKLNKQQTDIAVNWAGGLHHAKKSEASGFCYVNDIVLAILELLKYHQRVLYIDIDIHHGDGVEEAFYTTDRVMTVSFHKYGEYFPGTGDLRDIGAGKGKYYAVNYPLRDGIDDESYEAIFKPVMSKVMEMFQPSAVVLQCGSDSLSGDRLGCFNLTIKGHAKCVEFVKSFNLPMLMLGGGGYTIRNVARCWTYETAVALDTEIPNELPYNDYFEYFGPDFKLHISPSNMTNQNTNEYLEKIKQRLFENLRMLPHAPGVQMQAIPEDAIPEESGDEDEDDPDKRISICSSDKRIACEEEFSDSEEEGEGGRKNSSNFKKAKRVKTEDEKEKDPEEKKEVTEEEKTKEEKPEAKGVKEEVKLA
T2 sequence (O15379 whole entry): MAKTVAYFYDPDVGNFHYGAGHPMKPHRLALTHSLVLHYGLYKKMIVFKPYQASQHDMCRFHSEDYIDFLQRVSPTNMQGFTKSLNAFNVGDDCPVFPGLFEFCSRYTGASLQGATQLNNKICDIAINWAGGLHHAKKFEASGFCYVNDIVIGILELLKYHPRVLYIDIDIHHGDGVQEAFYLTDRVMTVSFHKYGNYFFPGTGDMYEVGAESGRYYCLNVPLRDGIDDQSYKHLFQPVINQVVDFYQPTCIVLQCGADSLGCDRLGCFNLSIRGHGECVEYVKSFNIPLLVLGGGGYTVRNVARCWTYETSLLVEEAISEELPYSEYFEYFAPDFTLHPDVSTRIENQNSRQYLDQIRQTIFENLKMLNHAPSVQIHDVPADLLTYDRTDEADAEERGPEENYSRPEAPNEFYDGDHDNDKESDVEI
T2 sequence (Q9Y618 389-480 partner limits assumed): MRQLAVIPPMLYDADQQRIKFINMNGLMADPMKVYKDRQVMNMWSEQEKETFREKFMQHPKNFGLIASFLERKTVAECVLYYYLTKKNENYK
T4 sequence (Q92769 whole entry): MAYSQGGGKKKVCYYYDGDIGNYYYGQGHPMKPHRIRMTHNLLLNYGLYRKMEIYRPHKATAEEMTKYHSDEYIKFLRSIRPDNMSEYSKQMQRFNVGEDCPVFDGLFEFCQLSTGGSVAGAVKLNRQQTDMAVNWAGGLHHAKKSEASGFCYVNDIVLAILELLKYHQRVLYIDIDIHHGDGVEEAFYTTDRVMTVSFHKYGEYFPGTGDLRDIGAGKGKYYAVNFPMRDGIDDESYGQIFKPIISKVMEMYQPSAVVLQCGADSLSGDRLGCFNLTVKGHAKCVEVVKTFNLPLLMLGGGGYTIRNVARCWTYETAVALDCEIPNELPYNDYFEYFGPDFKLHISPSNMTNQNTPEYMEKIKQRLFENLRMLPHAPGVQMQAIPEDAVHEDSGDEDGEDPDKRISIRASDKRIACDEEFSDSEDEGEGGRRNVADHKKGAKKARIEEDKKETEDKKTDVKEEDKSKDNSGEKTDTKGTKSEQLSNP

## CC[C@H](C)[C@H](NC(=O)[C@@H](NC(=O)[C@H](CC(N)=O)NC(C)=O)C(C)C)C(=O)N[C@@H](CCCNC(=N)N)C(=O)N[C@@H](CC(=O)O)C(=O)N[C@@H](C)C(=O)N[C@H](C(=O)N[C@H](C(=O)N[C@@H](Cc1ccc(O)cc1)C(=O)N[C@H](C(=O)N[C@@H](CCC(=O)O)C(=O)N[C@@H](Cc1c[nH]cn1)C(=O)N[C@@H](C)C(=O)N[C@@H](CCCCCC(=O)NO)C(=O)N[C@@H](CCCNC(=N)N)C(=O)N[C@@H](CCCCN)C(=O)N[C@@H](Cc1c[nH]c2ccccc12)C(N)=O)[C@@H](C)O)[C@@H](C)O)C(C)C [17a] (Ac-NVIRDAVTYTEHA[Asu](NHOH)RKW-NH2)
HDAC8
  EC50: > 25.1 nM
HDAC3/NCoR2 [1]
  Ki: 90.7 ± 0.3 nM
HDAC3/NCoR2 [1]; log[inhibitor(M)] -4.30103
  HDAC3 dose-response data (relative enzyme activity), Fig. 6 + S. Fig. 10: 1.48 and 1.63
HDAC3/NCoR2 [1]; log[inhibitor(M)] -5
  HDAC3 dose-response data (relative enzyme activity), Fig. 6 + S. Fig. 10: 5.89 and 6.06
HDAC3/NCoR2 [1]; log[inhibitor(M)] -5.69897
  HDAC3 dose-response data (relative enzyme activity), Fig. 6 + S. Fig. 10: 20.29 and 20.52
HDAC3/NCoR2 [1]; log[inhibitor(M)] -6.39794
  HDAC3 dose-response data (relative enzyme activity), Fig. 6 + S. Fig. 10: 47.71 and 47.78
HDAC3/NCoR2 [1]; log[inhibitor(M)] -7.09691
  HDAC3 dose-response data (relative enzyme activity), Fig. 6 + S. Fig. 10: 75.88 and 76.54
HDAC3/NCoR2 [1]; log[inhibitor(M)] -7.79588
  HDAC3 dose-response data (relative enzyme activity), Fig. 6 + S. Fig. 10: 91.62 and 91.95
HDAC3/NCoR2 [1]; log[inhibitor(M)] -8.49485
  HDAC3 dose-response data (relative enzyme activity), Fig. 6 + S. Fig. 10: 95.02 and 96.22
HDAC3/NCoR2 [1]; log[inhibitor(M)] -9.19382
  HDAC3 dose-response data (relative enzyme activity), Fig. 6 + S. Fig. 10: 95.35 and 97.08
HDAC3/NCoR2 [1]; log[inhibitor(M)] -9.89279
  HDAC3 dose-response data (relative enzyme activity), Fig. 6 + S. Fig. 10: 93.78 and 97.79
HDAC3/NCoR2 [1]; [3]
  HDAC3 dose-response data (relative enzyme activity), Fig. 6 + S. Fig. 10: 97,93* and 99,33*
HDAC1
  Ki: 198 ± 1 nM
HDAC1; log[inhibitor(M)] -4.30103
  HDAC1 dose-response data (relative enzyme activity), Fig. 6 + S. Fig. 10: 2.18 and 2.15
HDAC1; log[inhibitor(M)] -5
  HDAC1 dose-response data (relative enzyme activity), Fig. 6 + S. Fig. 10: 8.98 and 8.99
HDAC1; log[inhibitor(M)] -5.69897
  HDAC1 dose-response data (relative enzyme activity), Fig. 6 + S. Fig. 10: 31.34 and 30.75
HDAC1; log[inhibitor(M)] -6.39794
  HDAC1 dose-response data (relative enzyme activity), Fig. 6 + S. Fig. 10: 69.51 and 67.92
HDAC1; log[inhibitor(M)] -7.09691
  HDAC1 dose-response data (relative enzyme activity), Fig. 6 + S. Fig. 10: 91.81 and 91.08
HDAC1; log[inhibitor(M)] -7.79588
  HDAC1 dose-response data (relative enzyme activity), Fig. 6 + S. Fig. 10: 100.43 and 97.85
HDAC1; log[inhibitor(M)] -8.49485
  HDAC1 dose-response data (relative enzyme activity), Fig. 6 + S. Fig. 10: 101.87 and 100.28
HDAC1; log[inhibitor(M)] -9.19382
  HDAC1 dose-response data (relative enzyme activity), Fig. 6 + S. Fig. 10: 101.68 and 99.1
HDAC1; log[inhibitor(M)] -9.89279
  HDAC1 dose-response data (relative enzyme activity), Fig. 6 + S. Fig. 10: 102.02 and 100.95
HDAC1; [3]
  HDAC1 dose-response data (relative enzyme activity), Fig. 6 + S. Fig. 10: 100,29* and 101,16*
HDAC2
  EC50: 2 nM
HDAC3/NCoR2 [2]
  EC50: 3.16 nM
HDAC6
  residual enzymatic activity relative to control wells: 0.85 and 0.89
